From patent US20210322327A1, “EXTRACELLULAR VESICLES COMPRISING STING-AGONIST” (Codiak BioSciences, Inc., priority 2018, published 2021) come the findings set out here.

For data set [1], the system named is IFNβ, CXCL9, CXCL10, IFNγ; serum cytokines. The data set is described as follows: Cytokine levels after subcutaneous injection in naïve mice. Conditions: 20 μg free, four hours. It counts as in vivo, C57BL/6 mice. As for the experimental part:
To compare in vivo activity of free STING agonist and STING agonist-loaded exosomes beyond intratumoral dosing, naïve C57BL/6 mice were injected subcutaneously with PBS, exosomes, 20 μg of free 3-3 cAIMPdFSH or 0.2 μg 3-3 cAIMPdFSH loaded in PTGFRN-overexpressing exosomes. Four hours post-injection, lymph nodes, spleens, livers, and serum were collected and cytokine levels were measured.

The subject of data set [2] is B16F10 tumor and stroma area. The data set is described as follows: IFNβ in situ hybridization and CD8, F4/80 immunohistochemistry in B16F10 tumor sections. It counts as in vivo, C57BL/6 mice. Conditions: 20 μg free. As for the experimental part:
Four groups of C57BL/6 mice (5 mice per group) were inoculated subcutaneously with 1×10^6 B16F10 tumor cells. Eight days post-inoculation the mice were injected intratumorally with dose of exosomes, 20 μg of free 3-3 cAIMPdFSH, 0.1 μg of free 3-3 cAIMPdFSH, or 0.1 μg of 3-3 cAIMPdFSH loaded in PTGFN-overexpressing exosomes (EXOSTING™). Half of the mice were injected again intratumorally at day 11 after the inoculation. Four- or 24-hours post-injection of each injection, the tumors were collected, cytokine levels were measured by in situ hybridization, and CD8 or F4/80 positive cells were counted by immunohistochemistry. Tumor area and stroma area were identified histologically. IFNβ gene expression levels in the tumor (FIG. 77A) and stroma (FIG. 77B) area were increased in the 20 μg free STING agonist and 0.1 μg EXOSTING™ groups at 4h after single dose. […] F4/80 positive cells were decreased in 20 μg free STING agonist group, but cells were recovered in 0.1 μg EXOSTING™ group (FIG. 78B).

Data set [3] relates to STING pathway. Nature of the data set: Cytokine levels after single intratumoral dose in C57BL/6 and STING knock-out tumor-bearing mice. The data set is classed as in vivo, C57BL/6 mice and C57BL/6-Tmem173^gt mice. As to conditions: C57BL/6 mice; 20 μg intratumoral, four hours. The protocol: Three groups of C57BL/6 mice and C57BL/6-Tmem173^gt mice (4-5 mice per group) were inoculated subcutaneously with 1×10^6 B16F10 tumor cells. Eight days post-inoculation the mice were injected with a single intratumoral dose of PBS, 20 μg of free 3-3 cAIMPdFSH, or 0.1 μg of 3-3 cAIMPdFSH loaded in PTGFN-overexpressing exosomes (exeSTING). Four hours post-injection the tumors, draining lymph nodes, spleens, and serum were collected and cytokine levels were measured. […] In addition to gene expression, serum cytokine profiles are showing same trend (FIG. 58).

In data set [4] the test system is STING pathway. The data set is described as follows: STING pathway activation after intraperitoneal or intratumoral dose in B16F10 tumor-bearing mice. The data set is classed as in vivo, C57BL/6 mice. As to conditions: 20 μg single IP dose. The protocol:
Five groups of C57BL/6 mice (n=4 mice per group) were inoculated subcutaneously with 5×10^5 B16F10 murine melanoma cells. Eight days post-inoculation the mice were injected intraperitoneally (IP) with a single dose of either PBS, 20 μg ML RR-S2, 0.2 μg ML RR-S2, 0.2 μg ML RR-S2 loaded in PTGFRN-overexpressing exosomes (Exo STING IP), or intratumorally (IT) with a single dose of 0.2 μg ML RR-S2 loaded in PTGFRN-overexpressing exosomes (Exo STING IT). The exosome-encapsulated STING agonist formulations were loaded and quantitated as described in Example 1.

Data set [5] relates to ovalbumin (OVA)-reactive T-cells. The data set is described as follows: OVA-reactive memory T-cells by tetramer flow cytometry. As to conditions: six days. It counts as in vivo, C57BL/6 mice. The protocol: STING pathway agonism in dendritic cells enhances antigen presentation, IFNβ production, and recruits CD8+ memory T-cells to elicit a durable adaptive immune response. To determine whether Exo STING could induce a memory T-cell response to a defined antigen, an antigen-specific T-cell response study was carried out using purified ovalbumin (OVA). C57BL/6 mice were injected intraperitoneally with 200 μg OVA mixed with either PBS, 20 μg ML RR-S2, 0.2 μg ML RR-S2, or 0.2 μg ML RR-S2 loaded in PTGFRN-overexpressing exosomes (n=4-10 mice per group). Six days post-injection, spleens and mesenteric lymph nodes were collected, homogenized to a single-cell suspension, and live lymphocytes were enriched by density centrifugation. Isolated lymphocytes were analyzed by flow cytometry by measuring binding to immobilized tetrameric MHC class I bound to the OVA peptide SIINFEKL and phycoerythrin (PE) (iTAg Tetramer/PE—H-2 OVA; MBL®, Code #T03000). OVA-reactive memory T-cells were quantified by gating on PE, CD44, and CD8 positivity.

Data set [6] relates to IFNβ, CXCL9, CXCL10, IFNγ gene expression; serum cytokines. The data set is described as follows: Cytokine levels after single intratumoral dose in B16F10 tumor-bearing mice. The data set is classed as in vivo, C57BL/6 mice. Conditions: 20 μg single intratumoral dose, four hours post-injection. The protocol: Four groups of C57BL/6 mice (3-4 mice per group) were inoculated subcutaneously with 5×10^5 B16F10 tumor cells. Eight days post-inoculation the mice were injected with a single intratumoral dose of PBS, 20 μg of free ML RR-S2 CDA, 0.2 μg of free ML RR-S2 CDA, or 0.2 μg of ML RR-S2 CDA loaded in PTGFN-overexpressing exosomes (exo ML RR-S2 CDA). Four hours post-injection the tumors, draining lymph nodes, spleens, and serum were collected and cytokine levels were measured.
To confirm that the effects observed in FIGS. 20-23 were applicable to other STING agonists, B16F10 subcutaneous tumor-bearing mice were injected with 20 μg of free 3-3 cAIMPdFSH, 0.2 μg of free 3-3 cAIMPdFSH, or 0.2 μg of 3-3 cAIMPdFSH loaded in PTGFRN-overexpressing exosomes (exo 3-3 cAIMPdFSH).

The test system of data set [7] is B16F10 murine melanoma cells. Nature of the data set: B16F10 melanoma tumor growth, intratumoral injection. The data set is classed as in vivo, C57BL/6 mice. As to conditions: for tumor growth compared to PBS: day 25. The protocol: To test this hypothesis, C57BL/6 mice were inoculated subcutaneously with 5×10^5 B16F10 murine melanoma cells (n=5 mice per group). Five, eight, and eleven days post-inoculation the mice were injected intratumorally with PBS, 20 μg ML RR-S2, 0.2 μg ML RR-S2, or 0.2 μg ML RR-S2 loaded in PTGFRN-overexpressing exosomes Tumor volumes were measured daily until day 39, and animals were sacrificed when tumor volume reached 2000 mm^3.

Molecules are shown by their SMILES.

For `Nc1ncnc2c1ncn2[C@@H]1O[C@@H]2COP(=O)(S)O[C@H]3[C@@H](F)[C@H](n4cnc5c(=O)[nH]cnc54)O[C@@H]3COP(O)(=S)O[C@H]2[C@H]1F` (stereo partly shown) [3-3 cAIMPdFSH, 3′3′-cAIMPdFSH], in data set [1], the “IFNβ gene expression in lymph nodes, spleens, livers” value was “significantly elevated”. In addition, in data set [2], the “CD8 positive T cells” value is given as “not increased” and the F4/80 positive cells result is listed as “decreased”. In addition, the “level of IFNβ in tumor and stroma area” value in data set [2] (4h after second doses) is on record as “significantly decreased”. The “IFNβ gene expression in tumor and stroma area” value in data set [2] (4h after single dose) is reported as “increased”. Moreover, the “IFNβ gene expression in tumors, draining lymph node, spleen” value in data set [3] was “comparable in the 20 μg free STING agonist and 0.1 μg exosome-STING agonist groups”.
For the compound `Nc1ncnc2c1ncn2[C@@H]1O[C@@H]2COP(O)(=S)O[C@@H]3C(O)[C@@H](COP(O)(=S)O[C@H]2[C@H]1O)O[C@H]3n1cnc2c(N)ncnc21` (stereo partly shown) [ML RR-S2 CDA], the “IFNβ expression in tumor, pancreas and spleen” value in data set [4] is “induced IFNβ expression in the tumor, pancreas, and spleen above the PBS-treated group”. The “OVA-reactive T-cells in spleen and mesenteric lymph nodes” value in data set [5] (0.2 μg IP with 200 μg OVA) is “no activity in the spleen and only a modest response in mesenteric lymph nodes”; in data set [5] (20 μg IP with 200 μg OVA), “A greater proportion of OVA-reactive T-cells”. The “IFNβ gene expression levels in the tumor” value in data set [6] was “higher than the 0.2 μg free STING agonist and PBS groups”. Moreover, the “tumor growth compared to PBS” value is recorded as “moderately potentiated” in data set [7] (0.2 μg intratumoral days 5, 8, 11) and “almost completely eliminated” in data set [7] (20 μg intratumoral days 5, 8, 11). Further, in data set [7] (20 μg intratumoral), the “complete response (undetectable tumors at the site of inoculation)” value is given as “three out of five”.
